Our source for the IC50 values is US10865191B2, “Heterocyclic compounds useful as modulators of TNF alpha” (BRISTOL-MYERS SQUIBB COMPANY, priority 2015, dated 2020).

Chain of TNFα (P01375 77-233 limits assumed): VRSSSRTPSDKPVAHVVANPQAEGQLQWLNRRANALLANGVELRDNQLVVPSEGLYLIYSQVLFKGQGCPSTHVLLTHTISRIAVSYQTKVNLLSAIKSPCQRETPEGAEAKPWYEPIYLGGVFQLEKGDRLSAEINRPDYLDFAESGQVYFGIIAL

The target of the first test is TNFα (Homo sapiens, UniProt P01375). As to the kind of experiment: TNF induced HEK-Blue assay (NF-kB-driven secreted alkaline phosphatase reporter). As to conditions: TNF induced HEK-Blue assay IC50 value, TNFα 0.5 ng/mL, HEK-Blue-CD40L cells, 18 h. The class given is cell-based. The essentials:
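HEK-Blue-CD40L cells (NF-kB-driven SEAP reporter), 20,000/well, added after 30 min pre-incubation of compound (0.004–25 μM final) with TNFα 0.5 ng/mL final at 37 °C; 18 h incubation. SEAP read with QUANTI-Blue at 620 nm; IC50 from 4-parameter logistic fit, normalized to unstimulated and stimulated DMSO controls.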
As usually defined, the IC50 is the concentration at which inhibition is half-maximal. In the case of `Cc1nc2cc(F)c(-c3cnc(C(C)(C)O)nc3)nc2c(N[C@H](C)c2cc(C#N)ccc2F)c1Cl` [Example 586, (R)-3-(1-((3-chloro-7-fluoro-6-(2-(2-hydroxypropan-2-yl)pyrimidin-5-yl)-2-methyl-1,5-naphthyridin-4-yl)amino)ethyl)-4-fluorobenzonitrile], the IC50 is < 1000 nM.

Staying with this test, now noted: TNFα 0.5 ng/mL, HEK-Blue-CD40L cells, 18 h; read-out: TNF induced HEK-Blue assay IC50 value.
In the case of `CC(Cc1cn(C)c(=O)c2ccccc12)Nc1c(Cl)cnc2ccc(-c3cnc(C(C)(C)O)nc3)cc12` (racemic) [Example 138, 4-(2-((3-chloro-6-(2-(2-hydroxypropan-2-yl)pyrimidin-5-yl)quinolin-4-yl)amino)propyl)-2-methylisoquinolin-1(2H)-one], the IC50 was in the range of 10000 to 25000 nM.
In the case of `CCNC(=O)c1ccc(F)c(C(C)Nc2c(Cl)cnc3ccc(-c4cnc(N5CCNC(=O)C5)nc4)cc23)n1` (racemic) [Example 39, 6-(1-((3-chloro-6-(2-(3-oxopiperazin-1-yl)pyrimidin-5-yl)quinolin-4-yl)amino)ethyl)-N-ethyl-5-fluoropicolinamide], the IC50 was < 1000 nM.
On the same count and under the same terms, to `C[C@H](Nc1c(Cl)cnc2ccc(-c3cnc(C(C)(C)O)nc3)cc12)[C@H]1CCCN(C(N)=O)C1` [Example 103, (S)-3-((S)-1-((3-chloro-6-(2-(2-hydroxypropan-2-yl)pyrimidin-5-yl)quinolin-4-yl)amino)ethyl)piperidine-1-carboxamide] belongs 1000 to 10000 nM.
On the same count and under the same terms, then `CC(C)(O)c1ncc(-c2cc3c(N[C@@H](c4cc(C(N)=O)ccc4F)C(F)F)c(Cl)cnc3cc2F)cn1` [Example 391, (S)-3-(1-((3-chloro-7-fluoro-6-(2-(2-hydroxypropan-2-yl)pyrimidin-5-yl)quinolin-4-yl)amino)-2,2-difluoroethyl)-4-fluorobenzamide], with < 1000 nM; and `Cc1ccc(C)c(Nc2c(Cl)c(C(=O)Nc3cccnc3)nc3ccc(-c4ccc(C(N)=O)nc4)cc23)c1` [Example 37, 6-(6-carbamoylpyridin-3-yl)-3-chloro-4-((2,5-dimethylphenyl)amino)-N-(pyridin-3-yl) quinoline-2-carboxamide], with 10000 to 25000 nM.
`C[C@@H](Nc1c(Cl)cnc2cnc(-c3cnc(N4CCN(CC(=O)O)CC4)nc3)cc12)c1ccccc1F` (single isomer, unassigned) [Example 235]: the IC50 fell in the range of 10000 to 25000 nM.
`C[C@@H](Nc1c(Cl)cnc2ccc(-c3cnc(C(C)(C)O)nc3)cc12)c1cc(-c2cccnc2)ccc1F` [Example 553, (R)-2-(5-(3-chloro-4-((1-(2-fluoro-5-(pyridin-3-yl)phenyl)ethyl)amino)quinolin-6-yl)pyrimidin-2-yl)propan-2-ol]: the IC50 is < 1000 nM.
Consider `Cc1nc2c(F)cc(-c3cnc(C(C)(C)O)nc3)cc2c(NC(C)c2ccccc2F)c1Cl` (racemic) [Example 298, 2-(5-(3-chloro-8-fluoro-4-((1-(2-fluorophenyl)ethyl)amino)-2-methylquinolin-6-yl)pyrimidin-2-yl)propan-2-ol], for which the IC50 was < 1000 nM.
For the compound `Cc1c(-c2ccc(F)c([C@@H](C)Nc3c(Cl)cnc4ccccc34)c2)cnn1C` [Example 474, (R)-3-chloro-N-(1-(5-(1,5-dimethyl-1H-pyrazol-4-yl)-2-fluorophenyl)ethyl)quinolin-4-amine], the IC50 is < 1000 nM.
Regarding `Cc1ccnc(C(C)Nc2c(Cl)cnc3ccc(-c4ccc(C(C)(C)O)cc4)cc23)n1` (racemic) [Example 178, 2-(4-(3-chloro-4-((1-(4-methylpyrimidin-2-yl)ethyl)amino)quinolin-6-yl)phenyl)propan-2-ol], the IC50 is < 1000 nM.
On to `CC(Nc1c(Cl)cnc2cc(F)c(-c3cnc(C(C)(C)O)nc3)nc12)c1ccccc1F` (racemic) [Example 209, 2-(5-(7-chloro-3-fluoro-8-((1-(2-fluorophenyl)ethyl)amino)-1,5-naphthyridin-2-yl)pyrimidin-2-yl)propan-2-ol], for which the IC50 was < 1000 nM.
The same measure, in the same setting: then `C[C@@H](Nc1c(Cl)cnc2ccccc12)c1cc(-c2ccncc2)ccc1F` [Example 468, (R)-3-chloro-N-(1-(2-fluoro-5-(pyridin-4-yl)phenyl)ethyl)quinolin-4-amine], with 1000 to 10000 nM; and `CC(=O)c1ccc(F)c([C@@H](C)Nc2c(Cl)cnc3ccc(-c4cnc(C(C)(C)O)nc4)cc23)c1` [Example 409, (R)-1-(3-(1-((3-chloro-6-(2-(2-hydroxypropan-2-yl)pyrimidin-5-yl)quinolin-4-yl)amino)ethyl)-4-fluorophenyl)ethan-1-one], with < 1000 nM.
Regarding `C[C@@H](Nc1c(Cl)cnc2ccc(-c3cnc(C(C)(C)O)nc3)cc12)c1cc(C(=O)N(C)C)ccc1F` [Example 417, (R)-3-(1-((3-chloro-6-(2-(2-hydroxypropan-2-yl)pyrimidin-5-yl)quinolin-4-yl)amino)ethyl)-4-fluoro-N,N-dimethylbenzamide], the IC50 is < 1000 nM.
As to `Cc1ccc(C)c(Nc2c(Cl)c(C)nc3ccc(-c4ccc(CN5CCNCC5)cc4)cc23)c1` [Example 7, 3-chloro-N-(2,5-dimethylphenyl)-2-methyl-6-(4-(piperazin-1-ylmethyl)phenyl)quinolin-4-amine], the IC50 is < 1000 nM.
For `CC(Nc1c(Cl)cnc2ccc(-c3ccc(C(C)(C)O)cc3)cc12)c1ccccn1` (racemic) [Example 175, 2-(4-(3-chloro-4-((1-(pyridin-2-yl)ethyl)amino)quinolin-6-yl)phenyl)propan-2-ol], the IC50 is < 1000 nM.
Regarding `CC(Nc1c(Cl)cnc2ccc(-c3ccc(C(C)(C)O)cc3)cc12)c1ncccc1F` (racemic) [Example 170, 2-(4-(3-chloro-4-((1-(3-fluoropyridin-2-yl)ethyl)amino)quinolin-6-yl)phenyl) propan-2-ol], the IC50 was < 1000 nM.
With `CC(O)C(=O)N1CCN(c2ncc(-c3cc4c(NC(C)c5ccccc5F)c(Cl)cnc4cc3F)cn2)CC1` (single isomer, unassigned) [Example 603, 1-(4-(5-(3-chloro-7-fluoro-4-((1-(2-fluorophenyl)ethyl)amino)quinolin-6-yl)pyrimidin-2-yl)piperazin-1-yl)-2-hydroxypropan-1-one], the IC50 was < 1000 nM.
For the compound `CC(Nc1c(Cl)cnc2cc(F)c(-c3ccc(C(O)CN4CCOCC4)cc3)cc12)c1ccccc1F` (centres unmarked) [Example 288, 1-(4-(3-chloro-7-fluoro-4-((1-(2-fluorophenyl)ethyl)amino)quinolin-6-yl)phenyl)-2-morpholinoethan-1-ol], the IC50 fell in the range of 1000 to 10000 nM.
`Cc1nc2c(F)cc(-c3cnc(C(C)(C)O)nc3)cc2c(N[C@H](C)c2cc(C(N)=O)ccc2F)c1Cl` [Example 303, (R)-3-(1-((3-chloro-8-fluoro-6-(2-(2-hydroxypropan-2-yl)pyrimidin-5-yl)-2-methylquinolin-4-yl)amino)ethyl)-4-fluorobenzamide]: the IC50 was < 1000 nM.
As for `C[C@@H](Nc1c(Cl)cnc2ccccc12)c1cc(-c2cnn(CC(C)(C)O)c2)ccc1F` [Example 465, (R)-1-(4-(3-(1-((3-chloroquinolin-4-yl)amino)ethyl)-4-fluorophenyl)-1H-pyrazol-1-yl)-2-methylpropan-2-ol], the IC50 was in the range of 1000 to 10000 nM.
Still for that read-out and setting: then `C[C@@H](Nc1c(Cl)cnc2ccc(-c3cnc(C(C)(C)O)nc3)cc12)c1cc(-c2cnn(C)c2)ccc1F` [Example 339, (R)-2-(5-(3-chloro-4-((1-(2-fluoro-5-(1-methyl-1H-pyrazol-4-yl)phenyl)ethyl)amino)quinolin-6-yl)pyrimidin-2-yl)propan-2-ol], with < 1000 nM.
